The test concerns CFTR. Kind of test: CFTR protein levels, Western blot in U-87 MG cells. It counts as cell-based. As to the method:
Additional experiments were performed to determine how ALT-59 treatment affects CFTR protein levels. U-87 MG cells were maintained at 37° C. in a CO2 incubator in Dulbecco's Modified Eagle's Medium (DMEM) supplemented with 10% fetal bovine serum (FBS) and 1% of penicillin/streptomycin (Invitrogen), and were treated with DMSO, 3 μM, or 6 μM ALT-59. Cells were lysed using RIPA buffer (25 mM Tris, pH 7.4, 150 mM NaCl, 0.1% SDS, 0.5% sodium deoxycholate, 1% Triton X-100, Complete protease inhibitor cocktail). Western blotting was performed using anti-CFTR (Novus Biologicals) and anti-beta-actin (Sigma-Aldrich) antibodies. Images were obtained using Odyssey imager and quantified using the Odyssey software (LI-COR).
(Immunoblotting shows a protein as a band on a membrane.)

The structures appear in SMILES notation.

Consider `CN(C)c1ccc(C2Nc3ccc4ccccc4c3C3=C2C(=O)CC(C)(C)C3)cc1Br` (centres unmarked) [ALT-59, 5-(3-bromo-4-(dimethylamino)phenyl)-2,2-dimethyl-2,3,5,6-tetrahydrobenzo[a]phenanthridin-4(1H)-one], for which, where the note is “3 μM”, the “increase of CFTR300 level” value is on record as 10 fold and the “level of CFTR160” value is recorded as “did not affect”. Also, under “6 μM”, the “increase of CFTR160 level” value was 30%, the “increase of CFTR240 level” value was determined as 3 fold and the “increase of CFTR300 level” value turned out to be 18 fold.

The record behind these values is US20230095021A1, “MODULATORS OF TDP-43” (Alteron Therapeutics, Inc., priority 2019, published 2023).
